Assay results published in patent US11472838B2, “Inhibitors of blood coagulation factor XIII” (Zedira GmbH, priority 2018, dated 2022).
*1 amine or outer side, *2 acyl side, *3 side chain or, on linkers, in order; H or OH if unused. Where a SMILES comes first, the peptide text is derived from it. [ ]: non-standard residue; d: D form. The star is where a group is joined. Benzoyl(3-COOH,5-NO2) = O=C(O)c1cc(C(=O)*)cc([N+](=O)[O-])c1; Pro(3S,4R-(CH2)3) = O=C(O)[C@H]1NC[C@@H]2CCC[C@@H]21; Nle(5E-ene,6-CO2Et) = CCOC(=O)/C=C/CC[C@H](N)C(=O)O; Isonicotinoyl(3-COOH) = O=C(O)c1cnccc1C(=O)*; X1 = COC(=O)/C=C/CC[C@H](N[*:1])C(=O)[*:2]; X5 = CNC(=O)/C=C/CC[C@H](N[*:1])C(=O)[*:2]; X8 = NC(=O)/C=C/CC[C@H](N[*:1])C(=O)[*:2]; X3 = O=C(c1cnc(O)c([N+](=O)[O-])c1)*; Pro(4-oxo) = O=C1CN[C@H](C(=O)O)C1; Chg = N[C@H](C(=O)O)C1CCCCC1; Tle = CC(C)(C)[C@H](N)C(=O)O; X4 = O=C(O)c1cncc(C(=O)*)c1; X7 = O=C(O)c1nccnc1C(=O)*

How the values were obtained:
[1] = Stability of compounds in plasma (HPLC); conditions: for recovery in plasma determined by HPLC: 37° C., over a period of 2 hours
Method: Further, the stability of compounds in plasma was determined as prerequisite for drug-likeness. Briefly, after spiking the chemical entities, the plasma was incubated at 37° C. At certain time points (e.g. at 15 and 120 minutes), 3 vol. cold MeOH were added to extract the compounds. After centrifugation, the supernatant was analyzed by HPLC. The half life was calculated based on the respective calibration curve.

[2] = target: TG2 (Homo sapiens (Human), UniProt P21980); experiment: Inhibitory activity against TG2 (isopeptidase assay), Tables 3 and 4; format: biochemical; conditions: isopeptidase assay, Table 3; for Selectivity: TG2 versus FXIII; for IC50: read-out: IC50 [nM] TG2
Sequence of TG2 (P21980 whole entry): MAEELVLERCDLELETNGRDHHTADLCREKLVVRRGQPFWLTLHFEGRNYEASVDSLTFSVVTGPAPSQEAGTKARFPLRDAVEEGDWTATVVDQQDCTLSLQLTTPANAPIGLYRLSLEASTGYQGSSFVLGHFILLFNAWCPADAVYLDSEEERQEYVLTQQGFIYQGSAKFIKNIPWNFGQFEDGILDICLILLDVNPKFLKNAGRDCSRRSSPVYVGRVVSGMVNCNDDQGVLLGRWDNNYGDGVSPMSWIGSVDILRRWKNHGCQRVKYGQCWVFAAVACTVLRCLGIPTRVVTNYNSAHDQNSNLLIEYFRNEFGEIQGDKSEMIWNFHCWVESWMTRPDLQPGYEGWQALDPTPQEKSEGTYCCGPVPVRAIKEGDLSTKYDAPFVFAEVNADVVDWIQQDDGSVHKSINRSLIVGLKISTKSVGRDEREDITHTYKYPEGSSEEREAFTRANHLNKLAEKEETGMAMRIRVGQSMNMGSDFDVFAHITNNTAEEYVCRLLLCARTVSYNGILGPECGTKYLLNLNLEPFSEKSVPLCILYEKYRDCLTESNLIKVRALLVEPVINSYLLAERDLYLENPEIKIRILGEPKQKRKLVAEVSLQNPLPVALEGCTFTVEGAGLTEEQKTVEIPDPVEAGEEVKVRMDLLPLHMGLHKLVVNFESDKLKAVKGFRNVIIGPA

[3] = target: FXIII (Homo sapiens (Human), UniProt P00488); experiment: Inhibitory activity against FXIII (isopeptidase assay), Tables 3 and 4; format: biochemical; conditions: isopeptidase assay, Table 3; read-out: IC50 [nM] FXIII;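 also: FXIIIa activity read with a peptide substrate derived from the α2-antiplasmin N-terminal dodecapeptide, FXIII activated beforehand at room temperature, inhibitor-free wells with DMSO buffer as control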
Sequence of FXIII (P00488 39-732): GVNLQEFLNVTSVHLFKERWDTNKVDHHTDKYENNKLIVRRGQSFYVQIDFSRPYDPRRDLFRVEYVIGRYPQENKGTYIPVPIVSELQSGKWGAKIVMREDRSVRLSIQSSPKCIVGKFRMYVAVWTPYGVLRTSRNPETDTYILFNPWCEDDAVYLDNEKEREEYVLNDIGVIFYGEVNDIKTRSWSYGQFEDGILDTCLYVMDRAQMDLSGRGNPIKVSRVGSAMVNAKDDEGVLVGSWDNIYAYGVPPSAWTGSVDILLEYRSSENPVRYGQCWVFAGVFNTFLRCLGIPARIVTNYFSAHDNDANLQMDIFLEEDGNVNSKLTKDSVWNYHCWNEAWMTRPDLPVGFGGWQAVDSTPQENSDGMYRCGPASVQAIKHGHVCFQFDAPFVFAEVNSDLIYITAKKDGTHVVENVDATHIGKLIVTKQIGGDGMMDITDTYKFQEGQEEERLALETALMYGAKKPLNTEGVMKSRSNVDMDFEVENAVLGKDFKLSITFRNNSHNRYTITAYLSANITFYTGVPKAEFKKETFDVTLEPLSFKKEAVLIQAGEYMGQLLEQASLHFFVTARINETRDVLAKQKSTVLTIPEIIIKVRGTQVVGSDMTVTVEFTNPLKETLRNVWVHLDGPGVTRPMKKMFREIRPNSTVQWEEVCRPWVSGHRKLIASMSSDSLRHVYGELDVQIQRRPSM

recovery at 2 h [1] [%] | SMILES | recovery in plasma determined by HPLC [1] [%] | Selectivity [2] | IC50 [2] [nM] | IC50 [3] [nM]
 | CCOC(=O)/C=C/CC[C@H](NC(=O)c1ccncc1C(=O)O)C(=O)N[C@H](C(=O)N1CC(=O)C[C@H]1C(=O)N[C@H](C(=O)N[C@H](C(N)=O)C1CCCCC1)C1CCCCC1)C(C)(C)C [8a/b] ({Isonicotinoyl(3-COOH)}-[Nle(5E-ene,6-CO2Et)][Tle][Pro(4-oxo)][Chg][Chg]-NH2) | > 75 | 19.9 | 417 | 21
 | CC(C)(C)[C@H](NC(=O)[C@H](CC/C=C/C(N)=O)NC(=O)c1ccncc1C(=O)O)C(=O)N1CC(=O)C[C@H]1C(=O)N[C@H](C(=O)N[C@H](C(N)=O)C1CCCCC1)C1CCCCC1 [15a/b] ({Isonicotinoyl(3-COOH)}-[X8][Tle][Pro(4-oxo)][Chg][Chg]-NH2) | > 75 | 7.0 | 483 | 69
 | CNC(=O)/C=C/CC[C@H](NC(=O)c1ccncc1C(=O)O)C(=O)N[C@H](C(=O)N1CC(=O)C[C@H]1C(=O)N[C@H](C(=O)N[C@H](C(N)=O)C1CCCCC1)C1CCCCC1)C(C)(C)C [17a/b] ({Isonicotinoyl(3-COOH)}-[X5][Tle][Pro(4-oxo)][Chg][Chg]-NH2) | > 75 | 7.2 | 295 | 41
 | COC(=O)/C=C/CC[C@H](NC(=O)c1ccncc1C(=O)O)C(=O)N[C@H](C(=O)N1CC(=O)C[C@H]1C(=O)N[C@H](C(=O)N[C@H](C(=O)O)C1CCCCC1)C1CCCCC1)C(C)(C)C [34a/b] ({Isonicotinoyl(3-COOH)}-[X1][Tle][Pro(4-oxo)][Chg][Chg]-OH) | > 75 | 2.7 | 356 | 123
 | COC(=O)/C=C/CC[C@H](NC(=O)c1ccncc1C(=O)O)C(=O)N[C@H](C(=O)N1CC(=O)C[C@H]1C(=O)N[C@H](C(=O)N[C@H](C(=O)OC)C1CCCCC1)C1CCCCC1)C(C)(C)C [35a/b] ({Isonicotinoyl(3-COOH)}-[X1][Tle][Pro(4-oxo)][Chg][Chg]-OMe) | > 75 | 2.3 | 198 | 86
 | CNC(=O)[C@@H](NC(=O)[C@@H](NC(=O)[C@@H]1CC(=O)CN1C(=O)[C@@H](NC(=O)[C@H](CC/C=C/C(=O)OC)NC(=O)c1ccncc1C(=O)O)C(C)(C)C)C1CCCCC1)C1CCCCC1 [36a/b] ({Isonicotinoyl(3-COOH)}-[X1][Tle][Pro(4-oxo)][Chg][Chg]-NHMe) | > 75 | 4.1 | 168 | 41
 | COC(=O)/C=C/CC[C@H](NC(=O)c1ccncc1C(=O)O)C(=O)N[C@@H](CCSC)C(=O)N1CC(=O)C[C@H]1C(=O)N[C@H](C(=O)N[C@H](C(N)=O)C1CCCCC1)C1CCCCC1 [37a/b] ({Isonicotinoyl(3-COOH)}-[X1]M[Pro(4-oxo)][Chg][Chg]-NH2) | > 75 | 4.7 | 324 | 69
> 75 | COC(=O)/C=C/CC[C@H](NC(=O)c1nccnc1C(=O)O)C(=O)N[C@H](C(=O)N1CC(=O)C[C@H]1C(=O)N[C@H](C(=O)N[C@H](C(N)=O)C1CCCCC1)C1CCCCC1)C(C)(C)C [Compound 3] (X7-[X1][Tle][Pro(4-oxo)][Chg][Chg]-NH2) |  | 0.8 | 16 | 20
> 75 | COC(=O)/C=C/CC[C@H](NC(=O)c1cc(C(=O)O)cc([N+](=O)[O-])c1)C(=O)N[C@H](C(=O)N1CC(=O)C[C@H]1C(=O)N[C@H](C(=O)N[C@H](C(N)=O)C1CCCCC1)C1CCCCC1)C(C)(C)C [Compound 4] ({Benzoyl(3-COOH,5-NO2)}-[X1][Tle][Pro(4-oxo)][Chg][Chg]-NH2) |  | 1.1 | 14 | 13
> 75 | COC(=O)/C=C/CC[C@H](NC(=O)c1cnc(O)c([N+](=O)[O-])c1)C(=O)N[C@H](C(=O)N1CC(=O)C[C@H]1C(=O)N[C@H](C(=O)N[C@H](C(N)=O)C1CCCCC1)C1CCCCC1)C(C)(C)C [Compound 6] (X3-[X1][Tle][Pro(4-oxo)][Chg][Chg]-NH2) |  | 0.7 | 12 | 17
> 75 | COC(=O)/C=C/CC[C@H](NC(=O)c1cncc(C(=O)O)c1)C(=O)N[C@H](C(=O)N1CCC[C@H]1C(=O)N[C@H](C(=O)N[C@H](C(N)=O)C1CCCCC1)C1CCCCC1)C(C)(C)C [Compound 27] (X4-[X1][Tle]P[Chg][Chg]-NH2) |  | 2.4 | 64 | 27
> 75 | COC(=O)/C=C/CC[C@H](NC(=O)c1cnc(O)c([N+](=O)[O-])c1)C(=O)N[C@H](C(=O)N1C[C@@H]2CCC[C@@H]2[C@H]1C(=O)N[C@H](C(=O)N[C@H](C(N)=O)C1CCCCC1)C1CCCCC1)C(C)(C)C [Compound 28] (X3-[X1][Tle][Pro(3S,4R-(CH2)3)][Chg][Chg]-NH2) |  | 1.1 | 41 | 36
